# From patent US5681739A
# Experiments:
# soil cultures = assay type: cell-based; conditions: soil cultures of Example 6 after 32 hours of growth
# [1] = pH, Eh and total chromium of soil cultures after growth; assay type: physicochemical; conditions: cell-free supernatants, after 32 hours of growth
# Method: Immediately after collection in sterile containers, the soil samples were stored at 4° C. for 30 days before use. Soil dilutions (10^-1 g/mL) were made in sterile isotonic phosphate buffer. One mL of each soil dilution was inoculated into 165 mL sealed serum vials containing 50 mL of TSB with N2 in the headspace. The serum vials and their contents were sterilized prior to inoculation.
# Cr(VI) was added to the culture broth as K2 CrO4 to a final concentration of about 20 mg/L of Cr(VI). Cultures were incubated, at 30° C. on a gyratory shaker at 100 rpm, in an inverted position to limit gas leakage. Samples were analyzed periodically for Cr(VI) concentration and cell density.
# After 32 hours of growth, pH, Eh, and total chromium levels of the cultures of Example 6 were determined. The initial pH of TSB was 7.04. Eh was measured with a platinum electrode (Microelectrodes, Inc., Londonderry, N.H.) using an ACCUMET 50 digital pH meter (Fisher Scientific, Pittsburgh, Pa.). Total chromium was analyzed with inductively coupled plasma emission spectroscopy (Model 3410, ARL) of clarified cultures.
smiles,measurement,setting,value
[Cr+3] [Cr(III)],bacterial growth inhibition related to Cr(III),soil cultures,no evidence of Cr(III) precipitating out of solution or bacterial growth inhibition related to Cr(III)
same,Cr(III) precipitation out of solution,[1],no evidence of Cr(III) precipitating out of solution
